Assay results as given in US8986689B2, “Compositions and methods for brain delivery of analgesic peptides” (National Research Council of Canada, priority 2010, dated 2015).
Non-standard residues stand in square brackets, D forms with d. No end group written: not given here.

Assays:
male CD-1 mice = experiment: Tail flick assay (acute pain); assay type: in vivo, mouse; settings: for Analgesic effect after intra-cerebroventricular injection: 15 min and 30 min after injection
opioid receptors = opioid receptors (Rattus norvegicus, UniProt P33535); experiment: Opioid receptor binding competition assay against 3H-DAMGO in isolated rat brain membranes; settings: 30 nM 3H-DAMGO, capillary-depleted rat brain membranes
Sequence of opioid receptors (P33535 whole entry): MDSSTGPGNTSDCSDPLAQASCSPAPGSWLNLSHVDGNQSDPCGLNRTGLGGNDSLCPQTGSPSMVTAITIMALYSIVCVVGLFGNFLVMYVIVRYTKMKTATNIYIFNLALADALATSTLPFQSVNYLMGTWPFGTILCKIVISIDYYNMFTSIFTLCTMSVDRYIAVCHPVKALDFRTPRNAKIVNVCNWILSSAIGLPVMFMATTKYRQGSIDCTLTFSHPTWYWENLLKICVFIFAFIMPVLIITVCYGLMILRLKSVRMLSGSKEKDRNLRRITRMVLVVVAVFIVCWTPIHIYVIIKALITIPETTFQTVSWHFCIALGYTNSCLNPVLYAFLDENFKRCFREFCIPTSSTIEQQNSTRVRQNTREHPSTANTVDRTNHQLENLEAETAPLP
Experimental: The homogenate was centrifuged at 5800×g (10,000 rpm; Beckman L8-70 Ultracentrifuge, Rotor: SW 40) for 20 min at 4 degrees. The upper parenchyma layer was then collected and centrifuged under the same conditions. The upper parenchyma layer was again collected, and 1 Volume of 50 mM Tris-buffer pH 7.4 containing [2×] of protease inhibitor was added to the collected parenchyma. The mixture was homogenized using a motorized pestle. The homogenate was centrifuged at 46,000×g for 15 minutes at 4° C. The supernatant was removed and the pellet re-suspended in 1 Volume Tris-buffer pH 7.4 containing [2×] of protease inhibitor. The re-suspended pellet was incubated at 37° C. for 15 minutes with agitation in a 50 ml conical tube to dissociate endogenous opioids from receptors. After incubation, the homogenate was centrifuged at 46,000×g for 15 minutes at 4° C. The supernatant was again removed and the pellet re-suspended in 1 to 1.5 Volume Tris-buffer pH 7.4 containing [1×] of protease inhibitor. The membrane preparation was aliquoted into 1.5 ml tubes in 1 ml samples and stored at −80° C.
Opioid Receptor binding assay used a μ opioid receptor agonist, ^3H-DAMGO, to bind to opioid receptors present in the rat brain membrane preparation. Displacement studies were done with unlabelled ligands, Dalargin, and Dalargin-FC5. Briefly, diluted reagents were prepared using 50 mM Tris-buffer pH7.4, as follows: • i. […] 500 nM FC5-Dal: 16.67 μl 30 μM FC5-Dal and 1 ml Tris-buffer; • v.
Tris-buffer was added to each well, followed by a range of Dalargin concentrations, followed by ^3H-DAMGO. The reaction mixture was left at RT with gentle orbital shaking for 1.5 hr. A scintillation cocktail was then added and radioactive counts were measured using beta scintillation counter.
Specific activity for ^3H-DAMGO was 56.8 Ci/mmol. Percentage specific bound at each concentration of unlabelled competitor was calculated using the formula: % specific bound=Bound/Total bound*100.

male Wistar rats = experiment: Paw flick assay (Hargreaves method, CFA chronic inflammatory pain); assay type: in vivo, rat; settings: for Analgesic effect after intravenous injection: tail vein, three injections at 0, 1 and 2 h, Dalargin-cys 0.34 mg/kg, FC5 and EG2-Dalargin 7 mg/kg
Experimental: (§1) Chronic inflammatory pain was induced in 4-6 week old male Wistar rats, by a intra-plantar (i.pl.) injection (100 μl with a 30-gauge needle) of complete Freund's adjuvant in sterile water in a ratio of 1:1 in the right hind paw under brief isoflurane anesthesia (3%). Three days after CFA injection the putative antinociceptive effect of different compounds was quantified by measuring latencies of withdrawal of both hind limb paws (ipsilateral and contralateral to CFA injection) in response to radiant heat using digitalized plantar Analgesia Meter for paw stimulation (IITC Model #336TG Life Science, Inc.). A rapid paw withdrawal on the side of CFA injection (compared to the contralateral non-injected paw) was indicative of inflammatory pain. During the training period (before experiments), the light-intensity lamp was adjusted to elicit baseline paw withdrawal latencies between 17 to 20 s (in rats). […] Results were analyzed as temporal courses of paw withdrawal latency (sec) versus time (min or hrs) and expressed as % of maximum possible effect (% MPE) as described in Example 5. A subcutaneous injection of morphine 10 mg/kg served as a positive control.
For intra-cerebroventricular injections in rats, a longitudinal incision was made in the scalp to identify the bregma; then animals received a unilateral 5 μl intra-cerebroventricular injection of either FC5-Dalargin or Dalargin alone approximately 0.8 mm anterioposterior (AP) level of bregma, 1.5 mm with respect to the midline and 3.5 mm ventral from the skull surface. Injections were made using a Hamilton syringe equipped with a 25-gauge needle. Injection depth was controlled by a plug on the needle to prevent more than 3.5 mm penetration beyond the skull surface.
In contrast, FC5-Dalargin induced cumulative analgesia after each i.v. dosing, reaching 100% MPE 45 min-1 hour after the third injection and gradually ‘washing-out’ over a subsequent three hours (FIG. 12, closed triangles), similar to what was observed after intra-cerebroventricular injections of Dalargin-cys and FC5-Dalargin (FIGS. 10 and 11). If Fc5-Dalargin injection was given 4th time at 3 h (FIG. 12, open polygons), the ‘wash-out’ (i.e., disappearance of analgesic effect) was somewhat extended. […] When Dalargin is functionalized with the blood-brain barrier ‘carrier’ single domain antibody, FC5, Dalargin becomes efficacious in inducing analgesia in chronic pain because FC5 enables its delivery across the blood brain barrier to the sites of its pharmacological action, central opioid receptors.
as §1, with “5-7 weeks” for “4-6 week”, “5.” for “5. A subcutaneous injection of morphine 10 mg/kg served as a positive control.”
Rats received 5 μl intra-cerebroventricular injections of NPY (1 μg) as described in Example 6.
NPY was then injected intravenously in the tail vein in two injections, each containing 2.02 mg/kg of NPY, 1 h apart from each other as described in Example 6. […]

[1] = test system: Immortalized Adult Rat brain endothelial cells (ARBEC); experiment: Transport across in vitro blood brain barrier model; settings: Cy5.5-labelled, 10 μg/ml added to apical chamber, ARBEC monolayer
Experimental: FC5 and FC5-Dalargin were labelled by covalent conjugation to Cy5.5 N-hydroxysuccinimide (NHS) ester using methods recommended by the manufacturer (GE Healthcare). Cy5.5 NHS was bound to FC5 through a thioether covalent bond.
Immortalized Adult Rat brain endothelial cells (ARBEC) were used as the in vitro blood brain barrier model. ARBEC (80,000 cells/membrane) were seeded on a 0.5% gelatine-coated Falcon tissue culture inserts (pore size-1 μm; surface area 0.83 cm^2) in 1 ml of growth medium. The bottom chamber of the insert assembly contained 2 ml of growth medium supplemented with the fetal human astrocyte-conditioned medium in a 1:1 (v/v) ratio.
Transport studies were performed 7 days post-seeding. Filter inserts were rinsed with transport buffer (PBS containing 5 mM glucose, 5 mM MgCl2, 10 mM HEPES, 0.05% BSA, pH 7.4) and allowed to equilibrate at 37° C. for 30 minutes. Experiments were initiated by adding 10 μg/ml Cy5.5-labelled FC5-Dalargin or Cy5.5-labelled FC5 to the apical chamber. Aliquots (100 μl) were collected from the opposite chamber at various time intervals (5, 15, 30, 60, 120 minutes) and replaced with fresh buffer. The amount of FC5-Dalargin transported across HCEC monolayers was determined by fluorescence in a fluorescence plate reader.

[2] = 0.86 mg/kg of Dalargin, intra-carotid, 30 min after injection
[3] = 1.72 mg/kg of Dalargin, intra-carotid, 30 min after injection

Dalargin-cysteamide-OH (Y[dA]GFLR; not fully specified (C-terminus)) [Dalargin with a cysteamide-OH residue used for conjugation]
Time of return to basal levels after intra-cerebroventricular injection (male CD-1 mice; icv): 60 min
Analgesic effect after intra-cerebroventricular injection (male CD-1 mice; icv): reaching maximal latency of response
Displacement of 3H-DAMGO (receptor binding competition) (opioid receptors): only slightly less potent than Dalargin
% of maximal effect (male Wistar rats; icv, 1.08 μg): 75%
% MPE (male Wistar rats; icv, 10.08 μg): 100%
Analgesic effect after intravenous injection (male Wistar rats): did not increase latency of withdrawal of the inflamed paw

FC5-Dalargin: FC5 sdAb conjugated via Sulfo-SMCC cross-linker to Dalargin-cysteamide
% MPE (30 min) (male CD-1 mice; [2]): 63%
% MPE (30 min) (male CD-1 mice; 0.86 mg/kg of Dalargin, intra-carotid, 30 min after injection, listed as FC5-Dal): 63%
% MPE (30 min) (male CD-1 mice; [3]): 66%
% MPE (30 min) (male CD-1 mice; 1.72 mg/kg of Dalargin, intra-carotid, 30 min after injection, listed as FC5-Dal): 66%
Maximal analgesia, % of maximum effect (male CD-1 mice; icv, 30 min after injection): 40%
Persisting analgesia, % above basal levels (male CD-1 mice; icv, for up to 90 min): 10-15%
Permeability co-efficients (Pe) [1]: 4.17 ×10⁻⁶ cm/s
Displacement of 3H-DAMGO (receptor binding competition) (opioid receptors): only slightly less potent than Dalargin
% MPE (male Wistar rats; i.v. 7 mg/kg, three injections at 0, 1, 2 h, 45 min-1 hour after the third injection): 100%
Analgesic effect after icv injection (male Wistar rats; icv, 74.4 μg): complete analgesia
Duration of analgesia after icv injection (male Wistar rats; icv, 74.4 μg): 120 min

Tyr-[D-Ala]-Gly-Phe-Leu-Arg (Y[dA]GFLR) [Dalargin]
% MPE (30 min) (male CD-1 mice; [2]): 19%
% MPE (30 min) (male CD-1 mice; [3]): 17%
Time of return to basal levels after intra-cerebroventricular injection (male CD-1 mice; icv): 60 min
Analgesic effect after intra-cerebroventricular injection (male CD-1 mice; icv): reaching maximal latency of response
Analgesic effect after intra-carotid injection (male CD-1 mice; intra-carotid, 0.86 and 1.72 mg/kg): No analgesic effect

CN1CC[C@]23c4c5ccc(O)c4O[C@H]2[C@@H](O)C=C[C@H]3[C@H]1C5 [Morphine, morphine]
% of the maximal analgesic effect (observed with 10 mg/kg morphine) (male CD-1 mice; 3 mg/kg s.c.): approximately 50%
% MPE (30 min) (male CD-1 mice; 3 mg/kg sc, 30 min after injection): 56%
Tail flick latency (male CD-1 mice; 10 mg/kg morphine s.c., 30 min after injection, cut-off 10 sec): 10 s
% MPE (30 min) (male CD-1 mice; 10 mg/kg sc, 30 min after injection): 100%
Effect on CFA-injected paw withdrawal latency (male Wistar rats; 10 mg/kg subcutaneous, positive control): prompt increase in CFA-injected paw withdrawal latency to values of the contralateral, non-inflamed paw
Duration of the increase in paw withdrawal latency (male Wistar rats; 10 mg/kg subcutaneous, then slowly diminishing over 3 hours): 60 min

B1: FC5: blood-brain barrier-transmigrating single domain antibody, SEQ ID NO:4, expressed with His5 and c-myc tags (protein)
VHH: EVQLQASGGGLVQAGGSLRLSCAASGFKITHYTMGWFRQAPGKEREFVSRITWGGDNTFYSNSVKGRFTISRDNAKNTVYLQMNSLKPEDTADYYCAAGSTSTATPLRVDYWGKGTQVTVSS
modifications: His5 and c-myc tags; FC5 sdAb
Permeability co-efficients (Pe) [1]: 3.25 ×10⁻⁶ cm/s
Displacement of 3H-DAMGO (receptor binding competition) (opioid receptors): did not displace
Analgesic effect after intravenous injection (male Wistar rats): Neither FC5 alone nor EG2-Dalargin construct induced any analgesic effect
